Laboratory results taken from PubChem BioAssay (NCI).
Where “and” joins values, the source holds several entries; their conditions need not be identical. Identical values can stand only once.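 Values below derive from 48-hour exposures of cells grown in 96-well plates, with endpoints linearly interpolated between the two concentrations bracketing the appropriate inhibition level. Here, GI50 denotes the concentration required for 50% inhibition of growth. The concentration for full growth arrest is given as TGI.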

Columns and labels:
Test in all cases: NCI tumour cell line growth inhibition, 48 h
[1] = tested on: HL-60(TB) leukemia
[2] = tested on: M14 melanoma
[3] = tested on: IGROV1 ovarian
[4] = tested on: SNB-75 CNS
[5] = tested on: SW-620 colon
[6] = tested on: T-47D breast
[7] = tested on: OVCAR-5 ovarian
[8] = tested on: UACC-257 melanoma
[9] = tested on: CAKI-1 renal
[10] = tested on: OVCAR-3 ovarian

| Structure (SMILES) | GI50 [1] | TGI [1] | GI50 [2] | TGI [2] | GI50 [3] | TGI [3] | GI50 [4] | TGI [4] | GI50 [5] | TGI [5] | GI50 [6] | TGI [6] | GI50 [7] | TGI [7] | GI50 [8] | TGI [8] | GI50 [9] | TGI [9] | GI50 [10] | TGI [10] |
| --- | --- | --- | --- | --- | --- | --- | --- | --- | --- | --- | --- | --- | --- | --- | --- | --- | --- | --- | --- | --- |
| Cn1ncc(Cl)c1-c1cc(C(=O)N[C@H](CN)Cc2cccc(F)c2)sc1Cl | > 3.71 µM and 2.48 µM | > 6.27 µM and 8.32 µM | 1.1 µM and 2 µM | 3.14 µM and 6.49 µM | 0.0387 µM and 0.0478 µM | 2.65 µM and 4.18 µM | 0.139 µM and 0.131 µM | 1.48 µM and 2.56 µM | 2.16 µM and 7.33 µM | > 10 µM and 21 µM | 0.0272 µM and 0.0492 µM | 1.48 µM | 2.2 µM and 2.69 µM | > 10 µM and 17.2 µM | 1.44 µM and 2.88 µM | 3.71 µM and 9.91 µM | 1.45 µM and 3.03 µM | > 9.48 µM and 15.5 µM | 1.18 µM and 2.8 µM | > 10 µM and 15.4 µM |
| COC[C@H](NC(=O)c1cnc(C)s1)C(=O)N[C@@H](COC)C(=O)N[C@@H](Cc1ccccc1)C(=O)[C@@]1(C)CO1 | 35 µM | > 100 µM | 24.3 µM | > 69.8 µM | 38.8 µM | > 100 µM | 22.3 µM | > 100 µM | 21.2 µM | > 100 µM | 19.9 µM | > 71.2 µM | 33.3 µM | > 94 µM | 21.1 µM | > 70.8 µM | 38.5 µM | > 100 µM | 27.5 µM | > 86.3 µM |
| CC1(C)N=C(N)N=C(N)N1c1ccc(CNC(=O)Nc2ccc(S(=O)(=O)F)c(Cl)c2)c(Cl)c1 | 0.377 µM | > 100 µM | 1.24 µM | > 100 µM | 0.0805 µM | > 100 µM | 3.47 µM | > 100 µM | 0.122 µM | > 100 µM | 11.6 µM | > 100 µM | 0.332 µM | > 100 µM | 5.11 µM | > 100 µM | 12.5 µM | > 100 µM | 6.34 µM | > 100 µM |
| C[C@@H]1C[C@H](N)C[C@H](c2ccncc2NC(=O)c2ccc(F)c(-c3c(F)cccc3F)n2)C1 | 2.73 µM and 1.48 µM | 12.1 µM and > 10 µM | 12.9 µM and 2.35 µM | 27.2 µM and > 10 µM | 5.05 µM and 8.68 µM | 21 µM and > 10 µM | 2.55 µM and 4.3 µM | 18.2 µM and > 10 µM | 11.6 µM and 9.63 µM | 25.2 µM and > 10 µM | 10.5 µM and 8.5 µM | 28.5 µM and > 10 µM | 12.3 µM and > 10 µM | 25.9 µM and > 10 µM |  |  | 7.51 µM | > 10 µM | 14.3 µM and > 10 µM | 28.2 µM and > 10 µM |
| CC1=C([Te]c2ccccc2)C(=O)c2ccccc2C1=O | 0.326 µM | 1.54 µM | 0.424 µM | 1.76 µM | 0.5 µM | 1.82 µM | 0.207 µM | 0.898 µM | 0.475 µM | 1.74 µM | 0.488 µM | 2.78 µM | 0.283 µM | 0.86 µM | 2.23 µM | 5.92 µM | 0.974 µM | 3.2 µM | 1.04 µM | 2.23 µM |
| COc1ccc2c(c1)CCC1C2CC[C@@]2(C)C1CC[C@@H]2NC(=O)Cc1ccc(O)c(O)c1 (stereo not given in full) |  |  |  |  | 2.29 µM | 7.68 µM | 3.44 µM | 12.5 µM | 6.41 µM | 25 µM | 6.91 µM | 72.8 µM | 19.8 µM | 37.7 µM | 17 µM | 30.8 µM | 8.53 µM | 21.7 µM | 3.7 µM | 19.2 µM |
| Oc1ccccc1-c1nn(CNc2ccc(Cl)cc2)c(=S)o1 |  |  | 28.3 µM | > 100 µM | > 100 µM | > 100 µM |  |  | 22.4 µM | > 100 µM | 57 µM | > 100 µM | > 100 µM | > 100 µM | 20.6 µM | 47.9 µM | 3.71 µM | > 100 µM | 23.5 µM | > 100 µM |
| CC1=CCC2CC1C(C(=O)c1c[nH]c3ccccc13)=NC2(C)C (stereo not given) |  | > 100 µM |  | > 100 µM |  | > 100 µM |  |  |  | > 100 µM |  | 99.2 µM |  | > 100 µM |  | 93.4 µM |  | > 100 µM |  | > 100 µM |
| Cc1ccc(S(=O)(=O)ON2C(=O)c3cccc4cc([N+](=O)[O-])cc(c34)C2=O)cc1 |  |  |  | > 100 µM |  | > 100 µM |  | > 100 µM |  | > 100 µM |  | > 100 µM |  | > 100 µM |  | > 100 µM |  | > 100 µM |  | > 100 µM |
| O=S(=O)(N=C1C(Cl)=C(Cl)C(=NS(=O)(=O)c2ccccc2)C(Cl)=C1Cl)c1ccccc1 | 16.4 µM | > 100 µM | 16.5 µM | 34.7 µM | 18.7 µM | 40.7 µM | 23.5 µM | > 100 µM | 13.4 µM | 28 µM | 23.8 µM | > 100 µM | 45.2 µM | > 100 µM | 24 µM | 86.3 µM |  |  | 9.53 µM | 26 µM |
| COc1ccc(-c2ncnc3c2ncn3CC#CCCl)cc1 | 3.06 µM | 17.6 µM | 4.55 µM | 17.4 µM |  |  | 1.64 µM | 4.84 µM | 2.99 µM | 12.4 µM | 2.89 µM | 12.7 µM | 3.25 µM | 12.1 µM | 5.74 µM | 21.8 µM | 1.47 µM | 3.11 µM | 1.93 µM | 5.75 µM |
| CN(C)c1ccc(/C=N/NC(N)=S)nc1 | 1.8 µM | 37.9 µM | 2.28 µM | 5.23 µM |  |  | 1.82 µM | > 100 µM | 3.14 µM | > 100 µM | 4.32 µM | > 100 µM |  |  | 24.4 µM | > 100 µM |  |  | 2.54 µM | > 100 µM |
| CC(C)(C)OC(=O)C1C(=O)NC(=O)CC1CC(OCc1ccccc1)C(OCc1ccccc1)C(COCc1ccccc1)OCc1ccccc1 (stereo not given) | 16.6 µM and 2.81 µM | 46.5 µM and 11.1 µM | 55.1 µM and 27.2 µM | > 100 µM | > 100 µM and 22.3 µM | > 100 µM |  | > 100 µM | 74.5 µM and 23.4 µM | > 100 µM |  | 81 µM |  | > 100 µM | 47.8 µM and 15.3 µM | > 100 µM |  |  |  | > 100 µM |
| CSc1ccc(C2=NN(C(C)=O)C(c3ccc(-c4cc(Cl)c(Cl)cc4Cl)o3)C2)cc1 (stereo not given) | 12 µM | 30.4 µM |  |  | 9.99 µM | 24.9 µM | 18.7 µM | 43.2 µM | 18.5 µM | 33.2 µM | 11.9 µM | 37.2 µM | 14.3 µM | 27.4 µM | 22.8 µM | 42.7 µM | 19.2 µM | 43.2 µM | 15.3 µM | 37.8 µM |
